The values that follow come from patent publication US5989846A, “Assays to identify inducers of plant defense resistance” (Rutgers, The State University of New Jersey, priority 1995, dated 1999).

The test system of one test is catalase. The test can be described thus: In vivo catalase activity in tobacco suspension cells (oxygen electrode). It is filed as cell-based. More on the design: Inhibition (%) Catalase activity: concentration or dose not given beside the values. The following applies: for Inhibition (%) Catalase activity: Table 8. On the procedure: This was determined by adding increasing concentrations of SA or INA to tobacco suspension cells (derived from cultivar Xanthi nc), as described below. The tobacco suspension cell culture was grown in the dark in MS medium at approximately 22° C. with agitation (160 rpm). Cells were maintained by diluting 10-fold every 5 days. For experimentation, 5 ml of suspension cells obtained 3 days after dilution was transferred to a 25 ml Erlenmeyer flask and agitated (100 rpm) at room temperature in the absence or presence of SA or INA which had been adjusted to pH 5.8. After 1 hr, 1 ml of the treated cell suspension was transferred to 7 ml of fresh MS medium containing SA or INA in a 10 ml beaker (density was approximately 6 mg cells per ml). Cells were maintained in suspension with a magnetic stir bar. In vivo catalase activity was determined by measuring, with an oxygen electrode, the rate of H2 O2 -dependent O2 production immediately after addition of H2 O2 to 10 mM final concentration.

The next test deals with SABP/catalase. The test can be described thus: Competition with 14C-labeled SA for SABP/catalase in crude leaf extracts. The settings on record: for Inhibition (%) [14C]SA binding: Table 8, 14C-labeled SA 20 μM, 1 mM unlabeled compound, crude leaf extracts. The test is classed as binding, tobacco.
Test [1] deals with salicylic acid binding protein. The experiment in a line: Competitive [14C] salicylic acid binding assay (spin-column). The following applies: for Inhibition (%) 2× / Inhibition (%) 10×: [14C] salicylic acid 20 μM; for Inhibition (%) 2×: 40 μM (2×) unlabeled competitor; for Inhibition (%) 10×: 200 μM (10×) unlabeled competitor. More on the design: species or system tobacco. On the procedure:
The 180 kDa native binding protein isolated was tested for binding affinity and specificity. A competitive assay was established using salicylic acid binding protein fractionated from plants as previously described.
A key element during the characterization and the purification process is a simple, inexpensive, sensitive and reliable method for determining the salicylic acid binding activity. For this purpose, spin-column exclusion chromatography was used to separate the bound [^14 C] salicylic acid (excluded) from the bulk free salicylic acid (included). Specifically, a 1.5 ml Eppendorf tube was punctured at the tip with a 20-gauge needle and a small amount of glass wool was added to cover the small hole. The tube was then filled with Bio-Gel P-6DG desalting gel (exclusion limit 6 KDa; purchased from Bio-Rad, Melville, N.Y.) which have been swollen in water. An alternative gel is Sephadex G-25 fine (from Pharmacia, Piscataway, N.J.). Excess liquid in the gel was removed and centrifuged for 5 minutes at full speed in a Dynamic centrifuge (Becton Dickinson). The process was then repeated several times until the gel filled the tube. After incubation of an aliquot of the extract or column fractions for 2 hr at 4° C. with 5 μM-20 μM [^14 C salicylic acid] (specifically radioactivity 55 Ci/mol; purchased from New England Nuclear), 150 μl of proteins binding sample was loaded onto the tube column, which was then rapidly centrifuged for 2 minutes at full speed and the solution of proteins and bound [^14 C-salicylic acid] that was excluded from the gel was collected into another tube that had been placed under the tube column during the centrifugation. One hundred microliters of this solution was then used to determine the amount of bound salicylic acid. […] For example, to determine the inhibitory effect of various salicylic acid analogues on salicylic acid binding activity, these individual analogues were included in the binding mixture containing both the protein and [^14 C] salicylic acid during the 2 hr incubation, and resulting binding activity was determined in comparison to the activity in the absence of these analogues. Likewise, to determine the effect of pH and antioxidants on the binding activity the protein sample was either dialyzed against a large volume of buffers with different pH or antioxidants were added to the protein sample to various concentrations and the resulting binding activities were then determined with the spin-column method in comparison with the activity determined in the absence of these treatments.

Test [2] has as its system resistance or PR gene expression. The arrangement: key: ++: indicates a high level of biological activity; +: indicates a lower level of biological activity; ±: indicates low, but detectable biological activity in some assays; -: indicates no biological activity. The following applies: Table 3; values reported in literature; cited from earlier work.
In the next test the test system is PR1 genes. The experiment in a line: PR-1 protein/gene expression in tobacco leaves (immunoblot). The settings on record: for Induction of PR1 gene expression: tobacco leaves. The test is classed as in vivo. On the procedure:
The level of PR1 protein in tobacco leaves was analyzed by immunoblot analysis to establish biological activity. Three leaf discs (1 cm in diameter) were homogenized in 200 microliters of buffer containing 50 mM Tris (pH 8.0), 1 mM EDTA, 12 mM beta-mercaptoethanol and 10 mg/ml phenylmethylsulfonyl fluoride. The homogenate was centrifuged at full speed for 10 minutes in an Eppendorf microcentrifuge. The supernatant was fractionated with 15% polyacrylamide gel under denatured conditions. Protein blotting was done with a monoclonal antibody specific to PR1 protein and protein-antibody complexes were detected with an ECL kit from Amersham.
PR gene expression is both induced by SA and associated with the development of SAR. Therefore, it was of interest to test whether SA's mechanism of action for the induction of PR genes was via its inhibition of catalases which leads to enhanced H2 O2 levels. To address this question, H2 O2 abundance was artificially raised in tobacco leaves by treating with H2 O2 or compounds which either inhibit the catalase activity, like SA itself, or promote generation of H2 O2 in vivo. […]
In general terms: In western blotting, separated proteins are transferred to a membrane and probed.

The subject of another test is ascorbate peroxidase. The experiment in a line: Ascorbate peroxidase activity in tobacco leaf extracts. It is filed as biochemical, Nicotiana tabacum cv. Xanthi nc. The following applies: 200 μM compound, corrected for quenching of auto oxidation. On the procedure: […] Two grams of leaves from 6-8 week old tobacco plants (Nicotiana tabacum cv. Xanthi nc) grown at 22° C. in a 14 hr light cycle were homogenized under liquid nitrogen using a pestle and mortar.
To obtain ascorbate peroxidase-containing extracts, the soluble proteins were extracted by grinding the powder in 10 ml of 100 mM potassium phosphate, pH 7, containing […] ascorbate and 1% (weight/volume) polyvinylpyrrolidone, with a small amount of quartz sand. The homogenate was centrifuged at 14,000 g for 5 min. […] The pellet resulting from centrifugation (14,000 g, 15 min.) was resuspended in extraction buffer (100 mM potassium phosphate, pH7, containing 0.25 mM ascorbate and 1% (weight/volume) polyvinylpyrrolidone) and desalted on a PD-10 column (Pharmacia) equilibrated with 50 mM potassium phosphate, pH 7, containing 100 μM ascorbate. The extract was used immediately. […] The amount of protein per assay was 30-50 μg. Oxidation of ascorbate was followed by the decrease in the absorbance at 290 nm.
The values illustrated in FIG. 17 are the mean values for three replicated assays.

Molecules are shown by their SMILES.

On to `O=C(O)c1cc(Cl)ccc1O` [STR10], for which the “Inhibition (%) Catalase activity” value with catalase amounted to 100%. Moreover, the “Inhibition (%) [14C]SA binding” value with SABP/catalase worked out at 87%.

For the compound `O=C(O)c1cccc(O)c1` [STR12], in the test with catalase, the “Inhibition (%) Catalase activity” value is 0%. Moreover, the “Inhibition (%) [14C]SA binding” value in the test on SABP/catalase is recorded as 1%.

Take `O=Cc1cc(Cl)nc(Cl)c1` [STR4]: the “Inhibition (%) Catalase activity” value with catalase was 79%. The “Inhibition (%) [14C]SA binding” value in the test on SABP/catalase was 25%.

`O=C(O)c1ccc(Cl)cc1O` [STR9]: in the test on catalase, the “Inhibition (%) Catalase activity” value is recorded as 95%. The “Inhibition (%) [14C]SA binding” value in the test with SABP/catalase turned out to be 88%.

As for `O=C(O)c1cc(O)c(O)cc1O` [3,4,6-Trihydroxybenzoic acid], in test [1], the “Inhibition (%) 2×” value was found to be 1% and the “Inhibition (%) 10×” value is -1%. In addition, the Biological activity entry in test [2] was “-”.

On to `O=C(O)c1ccccc1` [Benzoic acid], for which, in test [1], the “Inhibition (%) 2×” value turned out to be 14% and the “Inhibition (%) 10×” value is listed as 25%. Besides, the “Inhibition of [14C] salicylic acid binding relative to unlabeled salicylic acid” value in test [1] (as well as unlabeled salicylic acid) is listed as “about 20%”. Also, in test [2], the Biological activity entry was “+”. Moreover, in the test on PR1 genes, the “Induction of PR1 gene expression” value was “able to induce the expression of PR1 genes”. Besides, in the test with PR1 genes (tobacco, FIG. 6A), the “Concentration needed relative to salicylic acid for similar levels of PR1 gene expression” value is reported as “approximately ten-fold”.

Turning to `O=C(O)c1ccccc1O` [STR8], the “Inhibition (%) Catalase activity” value with catalase is on record as 84%. For the same compound, the “Inhibition (%) [14C]SA binding” value with SABP/catalase was found to be 90%.

`O=C(O)c1ccccc1S` [Thiosalicylic acid]: in test [1], the “Inhibition (%) 2×” value is -5% and the “Inhibition (%) 10×” value is listed as 1%. Besides, the “% Inhibition of ascorbate peroxidase” value with ascorbate peroxidase amounted to 0 ± 2%. In addition, in test [2], the Biological activity entry is “-”.

For `O=C(O)C=Cc1ccccc1O` [O-coumaric acid], the “Competition for binding to salicylic acid binding protein” value in test [1] (competitive binding assay) was “unable to compete for binding”. In the test on PR1 genes, the “Induction of PR1 gene expression” value is listed as “did not induce PR1 gene expression”.

As to `CCCc1cc(C(=O)O)cc(O)n1` [STR7], the “Inhibition (%) Catalase activity” value with catalase was determined as 4%. For the same compound, the “Inhibition (%) [14C]SA binding” value in the test on SABP/catalase is given as 7%.

With `O=C(O)c1cc(Cl)cc(Cl)c1O` [STR11], the “Inhibition (%) Catalase activity” value in the test on catalase worked out at 100%. In addition, the “Inhibition (%) [14C]SA binding” value in the test on SABP/catalase amounted to 85%.

Turning to `O=C(O)c1ccc(O)c(O)c1O` [2,3,4-Trihydroxybenzoic acid], in test [1], the “Inhibition (%) 2×” value was determined as 1% and the “Inhibition (%) 10×” value stood at 2%. Further, the Biological activity result in test [2] was “-”.

For `O=C(O)CO` [glycolate], in the test on PR1 genes, the “Induction of PR1 gene expression” value is “induced”.

Regarding `Oc1ccccc1O` [Catechol], in test [1], the “Inhibition (%) 2×” value is reported as 0% and the “Inhibition (%) 10×” value was determined as 1%. Moreover, the Biological activity result in test [2] was “-”.

Turning to `O=C(O)c1ccc(O)cc1` [STR13], the “Inhibition (%) Catalase activity” value in the test with catalase came out at 0%. Further, the “Inhibition (%) [14C]SA binding” value in the test on SABP/catalase came to 0%.

With `O=C(O)c1cc(O)nc(O)c1` [STR5], the “Inhibition (%) Catalase activity” value with catalase was determined as 25%. Besides, the “Inhibition (%) [14C]SA binding” value in the test with SABP/catalase was 19%.

Consider `O=C(O)c1ccccc1Cl` [2-Chlorobenzoic acid], for which, in test [1], the “Inhibition (%) 2×” value was found to be 0% and the “Inhibition (%) 10×” value is 2%. For the same compound, in test [2], the Biological activity result is “-”.

Regarding `C[n+]1ccc(-c2cc[n+](C)cc2)cc1` [paraquat], the “Induction of PR1 gene expression” value in the test with PR1 genes is listed as “induced”.

As for `O=Cc1cc(Cl)nc(Cl)c1` [analogue #7], the “Inhibition of catalase activity in vivo (in words)” value with catalase is “active”. Besides, the “Inhibition of binding of 14C-labeled SA to SABP/catalase in vitro (in words)” value in the test on SABP/catalase (in vitro) is recorded as “much less active”. Moreover, in the test with PR1 genes (N.t. cv. Xanthi nc), the “Induction of PR-1 protein synthesis / PR-1 gene induction (in words)” value is “active”.

For `O=C(O)c1cc(Br)nc(Br)c1` [STR2], the “Inhibition (%) Catalase activity” value with catalase is 100%. In addition, the “Inhibition (%) [14C]SA binding” value in the test on SABP/catalase came out at 69%.

`Nc1cccc(C(=O)O)c1O` [3-Aminosalicylic acid]: in test [1], the “Inhibition (%) 2×” value is reported as 1% and the “Inhibition (%) 10×” value worked out at 5%. Besides, in test [2], the Biological activity entry is “-”.

With `Nc1ccc(C(=O)O)c(O)c1` [4-Aminosalicylic acid], in test [1], the “Inhibition (%) 2×” value was found to be 0% and the “Inhibition (%) 10×” value is on record as -1%. Besides, the “% Inhibition of ascorbate peroxidase” value with ascorbate peroxidase came to 9 ± 5%. The Biological activity entry in test [2] was “-”.

For the compound `O=C(O)c1cc(F)nc(F)c1` [STR3], in the test on catalase, the “Inhibition (%) Catalase activity” value is recorded as 48%. Further, the “Inhibition (%) [14C]SA binding” value in the test on SABP/catalase turned out to be 63%.

`O=C(O)c1cc(Cl)nc(Cl)c1` [STR1]: the “Inhibition (%) Catalase activity” value in the test on catalase turned out to be 98%. Also, the “Inhibition (%) [14C]SA binding” value with SABP/catalase is reported as 65%.

In the case of `CC(C)c1cc(C(=O)O)cc(O)n1` [STR6], the “Inhibition (%) Catalase activity” value in the test on catalase is listed as 15%. Further, in the test with SABP/catalase, the “Inhibition (%) [14C]SA binding” value is listed as 11%.

In the case of `O=C(O)c1c(O)cc(O)cc1O` [2,4,6-Trihydroxybenzoic acid], in test [1], the “Inhibition (%) 2×” value is recorded as -1% and the “Inhibition (%) 10×” value turned out to be 3%. The Biological activity result in test [2] is reported as “-”.

Consider `CCOc1ccccc1C(=O)O` [2-Ethoxybenzoic acid], for which, in test [1], the “Inhibition (%) 2×” value is reported as -3% and the “Inhibition (%) 10×” value is 2%. Further, in test [2], the Biological activity entry was “-”.

`OO` [H2 O2, hydrogen peroxide]: the “Induction of PR1 gene expression” value with PR1 genes is recorded as “induced the expression of PR-1 genes”.

Regarding `Nc1ccc(O)c(C(=O)O)c1` [5-Aminosalicylic acid], in test [1], the “Inhibition (%) 2×” value was 1% and the “Inhibition (%) 10×” value is given as -2%. Also, in test [2], the Biological activity result is listed as “-”.
